Source: DBAASP
Converted amounts (≈) assume the structure as drawn.

Tests used:
Assay in all cases: ≥ marks a high value that may be exact or a test limit, other limits are often not marked, values filed in µg/mL are converted to µM
[1] = system: Staphylococcus epidermidis KCTC 1917
[2] = system: Escherichia coli KCTC 1682
[3] = system: Pseudomonas aeruginosa KCTC 1637
[4] = system: Staphylococcus aureus KCTC 1621
[5] = system: Salmonella typhimurium KCTC 1926
[6] = system: Bacillus subtilis KCTC 3068
[7] = system: Klebsiella pneumoniae ATCC 700603
[8] = system: Pseudomonas aeruginosa ATCC 27853
[9] = system: Staphylococcus epidermidis ATCC 12228
[10] = system: Bacillus subtilis ATCC 6633
[11] = system: Staphylococcus aureus ATCC 25923
[12] = system: Escherichia coli ATCC 25922
[13] = system: Staphylococcus aureus NCTC 8325

## CC(C)C[C@H](NC(=O)[C@H](CCCCN)NC(=O)[C@H](CCCCN)NC(=O)[C@H](Cc1c[nH]c2ccccc12)NC(=O)[C@H](CC(C)C)NC(=O)[C@H](CCCCN)NC(=O)[C@H](CCCCN)NC(=O)[C@H](Cc1c[nH]c2ccccc12)NC(=O)[C@H](CCCCN)NC(=O)[C@H](CCCCN)NC(=O)[C@H](CCCN=C(N)N)NC(=O)[C@H](Cc1c[nH]c2ccccc12)NC(=O)[C@H](CCCN=C(N)N)NC(=O)[C@H](CCCCN)NC(=O)[C@H](Cc1c[nH]c2ccccc12)NC(=O)[C@H](CCCN=C(N)N)NC(=O)CN)C(=O)N[C@@H](CO)C(N)=O [GRWKRWRKKWKKLWKKLS]
[1]
  MIC: 8 µM (≈ 20 µg/mL)
[2]
  MIC: 4 µM (≈ 9.99 µg/mL)
[3]
  MIC: 4 µM (≈ 9.99 µg/mL)
[4]
  MIC: 4 µM (≈ 9.99 µg/mL)
[5]
  MIC: 2 µM (≈ 5 µg/mL)
[6]
  MIC: 2 µM (≈ 5 µg/mL)

## CC(=O)N[C@@H](Cc1ccccc1)C(=O)N[C@@H](CCCCN)C(=O)N[C@@H](CC(C)C)C(=O)N[C@@H](CCCCN)C(=O)N[C@@H](CC(C)C)C(=O)N[C@@H](CCCCN)C(=O)N[C@@H](Cc1ccccc1)C(=O)N[C@@H](CO)C(=O)N[C@@H](CC(N)=O)C(=O)N[C@@H](CCCCN)C(=O)N[C@@H](CC(C)C)C(=O)N[C@@H](CCCCN)C(=O)N[C@@H](Cc1c[nH]c2ccccc12)C(=O)N[C@@H](CCCCN)C(=O)N[C@@H](Cc1c[nH]c2ccccc12)C(N)=O [FKLKLKFSNKLKWKW]
[7]
  MIC: 25 µM (≈ 50.9 µg/mL)
[8]
  MIC: 12.5 µM (≈ 25.4 µg/mL)
[9]
  MIC: 12.5 µM (≈ 25.4 µg/mL)
[10]
  MIC: 3.2 µM (≈ 6.51 µg/mL)
[11]
  MIC: 25 µM (≈ 50.9 µg/mL)
[12]
  MIC: 12.5 µM (≈ 25.4 µg/mL)

## CC[C@H](C)[C@H](NC(=O)[C@H](CCCCN)NC(=O)[C@H](CCCCN)NC(=O)[C@H](CC(C)C)NC(=O)[C@@H](N)CCCCN)C(=O)N[C@@H](Cc1c[nH]c2ccccc12)C(=O)N[C@@H](Cc1c[nH]c2ccccc12)C(=O)N[C@H](C(=O)N[C@@H](CCCCN)C(=O)N[C@H](C(=O)N[C@@H](CCCCN)C(=O)N[C@@H](CCCCN)C(N)=O)C(C)C)[C@@H](C)CC [KLKKIWWIKVKK]
[1]
  MIC: 3.91 µM (≈ 6.25 µg/mL)
[2]
  MIC: 7.82 µM (≈ 12.5 µg/mL)
[3]
  MIC: 3.91 µM (≈ 6.25 µg/mL)
[4]
  MIC: 3.91 µM (≈ 6.25 µg/mL)
[5]
  MIC: 0.976 µM (≈ 1.56 µg/mL)
[6]
  MIC: 7.82 µM (≈ 12.5 µg/mL)

## CC[C@H](C)[C@H](NC(=O)CNC(=O)[C@H](C)NC(=O)[C@@H](NC(=O)[C@H](CC(=O)O)NC(=O)[C@H](CCCCN)NC(=O)[C@H](C)NC(=O)[C@H](C)NC(=O)CNC(=O)[C@H](CCCCN)NC(=O)[C@H](CC(C)C)NC(=O)[C@@H](NC(=O)[C@H](CC(=O)O)NC(=O)[C@H](CC(C)C)NC(=O)[C@H](CC(C)C)NC(=O)[C@H](CC(C)C)NC(=O)CN)[C@@H](C)O)[C@@H](C)CC)C(=O)N[C@@H](C)C(=O)N[C@@H](CC(C)C)C(=O)N[C@@H](CCC(=O)O)C(=O)N[C@@H](CCCCN)C(=O)N[C@@H](CC(C)C)C(=O)N[C@@H](CCCCN)C(=O)N[C@H]1CSSC[C@@H](C(=O)N[C@@H](CCCCN)C(=O)N2CCC[C@H]2C(=O)O)NC(=O)CNC(=O)[C@H]([C@@H](C)O)NC(=O)[C@H]([C@@H](C)CC)NC(=O)[C@H](CCCCN)NC1=O [GLLLDTLKGAAKDIAGIALEKLKCKITGCKP]
[13]
  MIC: ≥ 150 µM
[12]
  MIC: 19 µM (≈ 60.4 µg/mL)

## CC[C@H](C)[C@H](NC(=O)[C@H](CCCN=C(N)N)NC(=O)[C@H](CCCN=C(N)N)NC(=O)[C@H](CC(C)C)NC(=O)[C@@H](N)CCCN=C(N)N)C(=O)N[C@@H](Cc1c[nH]c2ccccc12)C(=O)N[C@@H](Cc1c[nH]c2ccccc12)C(=O)N[C@H](C(=O)N[C@@H](CCCN=C(N)N)C(=O)N[C@H](C(=O)N[C@@H](CCCN=C(N)N)C(=O)N[C@@H](CCCN=C(N)N)C(N)=O)C(C)C)[C@@H](C)CC [RLRRIWWIRVRR]
[1]
  MIC: 3.54 µM (≈ 6.25 µg/mL)
[2]
  MIC: 7.08 µM (≈ 12.5 µg/mL)
[3]
  MIC: 3.54 µM (≈ 6.25 µg/mL)
[4]
  MIC: 3.54 µM (≈ 6.25 µg/mL)
[5]
  MIC: 1.77 µM (≈ 3.13 µg/mL)
[6]
  MIC: 7.08 µM (≈ 12.5 µg/mL)
